Source: PubChem BioAssay (NCI)
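Five concentrations, 48 hours, 96-well plates. Abbreviation: GI50, concentration required for 50% inhibition of growth. TGI is the concentration that stops growth completely.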

Tests used:
Experiment in all cases: growth of human tumour cells (NCI), 48 h
[1] = system: 786-0 renal
[2] = system: A498 renal
[3] = system: A549 NSCLC
[4] = system: ACHN renal
[5] = system: BT-549 breast
[6] = system: CAKI-1 renal
[7] = system: CCRF-CEM leukemia
[8] = system: COLO 205 colon
[9] = system: DU-145 prostate
[10] = system: EKVX NSCLC
[11] = system: HCC-2998 colon
[12] = system: HCT-116 colon
[13] = system: HCT-15 colon
[14] = system: HL-60(TB) leukemia
[15] = system: HOP-62 NSCLC
[16] = system: HOP-92 NSCLC
[17] = system: HS 578T breast
[18] = system: HT29 colon
[19] = system: IGROV1 ovarian
[20] = system: K-562 leukemia
[21] = system: KM12 colon
[22] = system: LOX IMVI melanoma
[23] = system: M14 melanoma
[24] = system: MALME-3M melanoma
[25] = system: MCF7 breast
[26] = system: MDA-MB-231 breast
[27] = system: MDA-MB-435
[28] = system: MDA-MB-468 breast
[29] = system: MOLT-4 leukemia
[30] = system: NCI-H226 lung
[31] = system: NCI-H23 lung
[32] = system: NCI-H460 lung
[33] = system: NCI-H522 lung
[34] = system: NCI/ADR-RES ovarian
[35] = system: OVCAR-3 ovarian
[36] = system: OVCAR-4 ovarian
[37] = system: OVCAR-5 ovarian
[38] = system: OVCAR-8 ovarian
[39] = system: PC-3 prostate
[40] = system: RPMI-8226 leukemia
[41] = system: RXF 393 renal
[42] = system: SF-268 CNS
[43] = system: SF-295 CNS
[44] = system: SF-539 CNS
[45] = system: SK-MEL-2 melanoma
[46] = system: SK-MEL-28 melanoma
[47] = system: SK-MEL-5 melanoma
[48] = system: SK-OV-3 ovarian
[49] = system: SN12C renal
[50] = system: SNB-19 CNS
[51] = system: SNB-75 CNS
[52] = system: SW-620 colon
[53] = system: T-47D breast
[54] = system: TK-10 renal
[55] = system: U251 CNS
[56] = system: UACC-257 melanoma
[57] = system: UACC-62 melanoma
[58] = system: UO-31 renal

C=C1CCC2C3(C)COC(c4ccco4)OC3CCC2(C)C1CC(Sc1ccccc1)C1=CCOC1=O (stereo unspecified)
GI50 [1]: 14.3 µM
TGI [1]: 34.1 µM
GI50 [2]: > 100 µM
TGI [2]: > 100 µM
GI50 [3]: 18.7 µM
TGI [3]: > 100 µM
GI50 [4]: 14.1 µM
TGI [4]: > 100 µM
GI50 [5]: 3.97 µM
TGI [5]: 16.9 µM
GI50 [6]: 18.4 µM
TGI [6]: > 100 µM
GI50 [7]: 2.12 µM
TGI [7]: > 100 µM
GI50 [8]: 24.4 µM
TGI [8]: > 100 µM
GI50 [9]: 9.01 µM
TGI [9]: 73.6 µM
GI50 [10]: 11 µM
TGI [10]: > 100 µM
GI50 [11]: 21.1 µM
TGI [11]: > 100 µM
GI50 [12]: 4.39 µM
TGI [12]: 17.9 µM
GI50 [13]: 6.66 µM
TGI [13]: 52.9 µM
GI50 [14]: 2.82 µM
TGI [14]: 36.4 µM
GI50 [15]: 23.5 µM
TGI [15]: > 100 µM
GI50 [16]: 16.5 µM
TGI [16]: > 100 µM
GI50 [17]: 35.7 µM
TGI [17]: > 100 µM
GI50 [18]: 4.26 µM
TGI [18]: 26.1 µM
GI50 [19]: 17.8 µM
TGI [19]: > 100 µM
GI50 [20]: 3.62 µM
TGI [20]: > 100 µM
GI50 [21]: 12.1 µM
TGI [21]: > 100 µM
GI50 [22]: 1.81 µM
TGI [22]: 4 µM
GI50 [23]: 15.7 µM
TGI [23]: 69.2 µM
GI50 [24]: 35.6 µM
TGI [24]: > 100 µM
GI50 [25]: 3.75 µM
TGI [25]: 41 µM
GI50 [26]: 14.3 µM
TGI [26]: 53.2 µM
GI50 [27]: 8.94 µM
TGI [27]: > 100 µM
GI50 [28]: 3.8 µM
TGI [28]: 16.7 µM
GI50 [29]: 4.41 µM
TGI [29]: > 100 µM
GI50 [30]: 6.22 µM
TGI [30]: 62.6 µM
GI50 [31]: 21.5 µM
TGI [31]: 88.9 µM
GI50 [32]: 21.7 µM
TGI [32]: > 100 µM
GI50 [33]: 7.51 µM
TGI [33]: 20.4 µM
GI50 [34]: 2.6 µM
TGI [34]: 6.95 µM
GI50 [35]: 3.78 µM
TGI [35]: 12.5 µM
GI50 [36]: 14.7 µM
TGI [36]: > 100 µM
GI50 [37]: 21.7 µM
TGI [37]: 91 µM
GI50 [38]: 3.05 µM
TGI [38]: 14.3 µM
GI50 [39]: 6.71 µM
TGI [39]: > 100 µM
GI50 [40]: 2.36 µM
TGI [40]: 8.23 µM
GI50 [41]: 8.05 µM
TGI [41]: 49.1 µM
GI50 [42]: 59.5 µM
TGI [42]: > 100 µM
GI50 [43]: 25.7 µM
TGI [43]: > 100 µM
GI50 [44]: 4.12 µM
TGI [44]: 15.6 µM
GI50 [45]: 7.3 µM
TGI [45]: 22 µM
GI50 [46]: 28.5 µM
TGI [46]: > 100 µM
GI50 [47]: 10.8 µM
TGI [47]: 22.9 µM
GI50 [48]: 80.1 µM
TGI [48]: > 100 µM
GI50 [49]: 9.46 µM
TGI [49]: > 100 µM
GI50 [50]: 42.3 µM
TGI [50]: > 100 µM
GI50 [51]: 8.98 µM
TGI [51]: > 100 µM
GI50 [52]: 3.43 µM
TGI [52]: 15 µM
GI50 [53]: 14.4 µM
TGI [53]: > 100 µM
GI50 [54]: 97.7 µM
TGI [54]: > 100 µM
GI50 [55]: 5.88 µM
TGI [55]: 20.3 µM
GI50 [56]: 21.9 µM
TGI [56]: > 100 µM
GI50 [57]: 12.4 µM
TGI [57]: 31.8 µM
GI50 [58]: 13.4 µM
TGI [58]: > 100 µM
